Experimental data: PubChem BioAssay AID1508612

Experiment: passive permeability, PAMPA, ADME assay (AID 1508612)
Settings: pH 7.4, 30.0 min, 50.0 µM

Row | Structure (SMILES) | Papp [×10⁻⁶ cm/s]
1 | CC1CCC(n2c3cnccc3c3cnc(Nc4ccc5c(n4)CCN(C(=O)CO)C5)nc32)CC1 (configuration not stated) | 135
2 | O=C(O)C1CCN(c2ncc(-c3ccc4c(c3)OCCCO4)s2)CC1 | 10.1
3 | Cc1ccc(N2CCN(c3cnn(-c4nc5ccccc5s4)c(=O)c3Cl)CC2C)cc1 (configuration not stated) | 317
4 | O=C(O)c1ccccc1-c1ccc(/C=c2\sc3nc4cc(Br)cnc4n3c2=O)o1 | 12.3
5 | Cc1ccc(C(=O)Nc2nc3nc(C)cc(=O)n3[nH]2)cc1 | < 1
6 | COc1ccc(C(=O)NC2CCN(c3cnn(CC4CC4)c(=O)c3)CC2)c(OC)n1 | 550
7 | Clc1ccccc1-c1nnc2sc(-c3ccc4c(c3)OCO4)nn12 | 958
8 | CN(C)c1cccc(-c2nc(N3CCC(C(N)=O)CC3)ncc2F)c1 | 780
9 | CN1CCN(C(=O)Cc2c[nH]c3ncc(-c4ccccc4Oc4ccccc4)cc23)CC1 | > 1000
10 | Nc1c(C(=O)Nc2ccc(Cl)cc2)sc2nc3c(cc12)N1CCC3CC1 | 697
11 | COc1cc2c(c(OC)c1OC)-c1ccc(SC)c(=O)cc1C(N)CC2 (configuration not stated) | > 1000
12 | Cc1ccccc1C(=O)Nc1nc2c(s1)CC(C(C)(C)C)CC2 (configuration not stated) | 257
13 | CC(C)NC(=O)N1C[C@@H]2C[C@H](C1)c1ccc(-c3cccc(C(F)(F)F)c3)c(=O)n1C2 | 189
14 | CSc1ccc(-c2cnc(N3CCC(C(N)=O)CC3)s2)cc1 | 58.9
15 | CN(C)C(=O)c1cc2cnc(Nc3ccc(N4CCNCC4)cn3)nc2n1C1CCCC1 | 138
16 | CCN1CCN(c2ncc3c(n2)CCN(Cc2cc(Br)cs2)C3)CC1 | 787
17 | Cc1cccc(C)c1NC(=O)c1nc(SC(C)C)ncc1Cl | > 1000
18 | CCCCOC(=O)c1ccnc2cc(C(OCCN3CCCCC3)c3ccccc3Cl)sc12 (configuration not stated) | 828
19 | CCCNC(=O)c1ccc2c(c1)N=C(C)c1c(C)ccc(C)c1S2 | > 1000
20 | Cn1cnc2c(F)c(Nc3ccc(Br)cc3Cl)c(C(=O)NOCCO)cc21 | 131
21 | CN1CCN(Cc2ccc(-c3ccc(C(C)(C)C#N)cc3)nc2)CC1 | > 1000
22 | CC(=O)N1CCc2c(sc3c2c(=O)n(-c2ccccc2)c(=O)n3CC(=O)c2ccccc2)C1 | 714
23 | CCCCN(CC)CCNC(=O)c1cc2c(-c3ccc(Cl)cc3)nn(C)c2s1 | > 1000
24 | CCOc1ccc(CCNC(=O)c2cc3ccccc3n2Cc2ccccn2)cc1OCC | > 1000
25 | CS(=O)(=O)c1ccc2nc(NC(=O)C3CC3)sc2c1 | 106
26 | CS(=O)(=O)c1cccc(-c2csc(N3CCC(C(N)=O)CC3)n2)c1 | 49.1
27 | O=C(c1ccccc1)N1CCC(C(=O)N2CCC(N3Cc4ccccc4C3=O)CC2)CC1 | 24.9

Other lines, results leading:

Row | Papp [×10⁻⁶ cm/s] | Structure (SMILES)
28 | > 1000 | Cc1cnc(-c2ccccc2C2CC2)nc1NCc1ccc(-c2cccnc2)cc1
29 | < 1 | CC(=O)Nc1ccc(S(=O)(=O)Nc2nccs2)cc1
30 | 396 | CCN(CC)S(=O)(=O)c1ccc(N2CCCC2)c(NS(=O)(=O)c2ccccc2)c1
31 | 11.6 | Fc1cc(Nc2nc(-c3ccncc3)nc3ccccc23)ccc1-c1ccnc(C(F)(F)F)c1
32 | 24.2 | Cc1ccc(-c2cc(C(=O)NCc3cnn(C)c3)c3cc(Br)ccc3n2)cc1
33 | < 1 | COc1ccc(S(=O)(=O)N2CCOCC2)cc1NC(=O)c1cccc(-n2cccc2)c1
34 | 18.1 | O=[S+]([O-])(Nc1nccs1)c1ccc(NCc2cc(F)cc(Cl)c2O)cc1
35 | 15.4 | Fc1cc(Nc2nc(-c3ccncc3)nc3ccccc23)ccc1-c1ccncc1
36 | 969 | Cc1cccc(C)c1Nc1c(-c2cccs2)nc2ncccn12
37 | 34.1 | COC(=O)C1=C(C)NC(C)=C(C(=O)OCCCN2CCC(c3ccccc3)(c3ccccc3)CC2)C1c1cccc([N+](=O)[O-])c1 (configuration not stated)
38 | 3.22 | O=S(=O)(Nc1ccc(C2CCNCC2)cc1)c1ccc(NCc2cccc(Cl)c2O)cc1
39 | > 1000 | COc1ccccc1Nc1ccnc(N2CCN(C(=O)c3ccc(C)cc3)CC2)n1
40 | 572 | COc1cccc(CNc2ccc(S(=O)(=O)Nc3cccs3)cc2)c1O
41 | 31.5 | COc1cccc(CNc2ccc(S(=O)(=O)Nc3ncccn3)cc2)c1O
42 | 861 | Cc1ccc(S(=O)(=O)NCCC(=O)Nc2nc(-c3ccccc3)cs2)cc1
43 | 50.8 | O=C(Nc1nc(-c2ccccc2)cs1)c1ccncc1NS(=O)(=O)c1cccnc1
44 | 342 | COc1cccc(CNc2ccc(S(=O)(=O)Nc3nccs3)cc2)c1
45 | 827 | Cc1cccc(C)c1C(=O)Nc1cccc([S+](=O)([O-])N2CCCCCC2)c1
46 | > 1000 | Fc1cccc(F)c1Nc1nc(-c2ccncc2)nc2ccccc12
47 | 20.9 | COc1ccc(-c2ccc(C(=O)NC3CC(c4cc(=O)[nH]c(N)n4)C3)o2)cc1 (configuration not stated)
48 | 918 | CNc1oc(-c2cccc(-c3ccccc3)c2)nc1C#N
49 | 5.92 | Cc1ccc(S(=O)(=O)Nc2cnccc2C(=O)Nc2nc(-c3ccc(-c4ccccc4)cc3)cs2)cc1
50 | 350 | COC(=O)c1ccc(NC(=O)c2nc3ccccc3n(C)c2=O)cc1
51 | 120 | CNC(=O)c1ccc(-c2cnc3cnc(C(=O)N(C)c4ccc(Cl)cc4)cn23)cc1
52 | 255 | CCOP(=O)(Cc1ccc(C(=O)Nc2ccc(Br)cc2C#N)cc1)OCC
